According to ChEMBL document CHEMBL1201862, “PubChem BioAssay data set” (2004):
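Grown in 96-well plates, cells were treated for 48 hours with each compound at five concentrations. Insufficient inhibition: endpoint recorded as highest concentration tested. At the GI50, growth is halved.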 Calls of active or inactive are those of the source. No stated cut-off is given here; in the data, active = GI50 up to about 1.1 µM and inactive = higher.

How the values were obtained:
Experiment in all cases: DTP human tumour cell line panel, 48 h
HCT-116 = tested on: HCT-116
K562 = tested on: K562
DU-145 = tested on: DU-145
OVCAR-5 = tested on: OVCAR-5
OVCAR-8 = tested on: OVCAR-8
SR = tested on: SR
NCI/ADR-RES = tested on: NCI/ADR-RES
NCI-H460 = tested on: NCI-H460
SF-268 = tested on: SF-268
HCT-15 = tested on: HCT-15
Hs-578T = tested on: Hs-578T
MCF7 = tested on: MCF7
MDA-MB-231 = tested on: MDA-MB-231
NCI-H522 = tested on: NCI-H522
HCC 2998 = tested on: HCC 2998
SF-539 = tested on: SF-539
RXF 393 = tested on: RXF 393
MOLT-4 = tested on: MOLT-4
SN12C = tested on: SN12C
UACC-62 = tested on: UACC-62

| Structure (SMILES) | GI50 (HCT-116) | GI50 (K562) | GI50 (DU-145) | GI50 (OVCAR-5) | GI50 (OVCAR-8) | GI50 (SR) | GI50 (NCI/ADR-RES) | GI50 (NCI-H460) | GI50 (SF-268) | GI50 (HCT-15) | GI50 (Hs-578T) | GI50 (MCF7) | GI50 (MDA-MB-231) | GI50 (NCI-H522) | GI50 (HCC 2998) | GI50 (SF-539) | GI50 (RXF 393) | GI50 (MOLT-4) | GI50 (SN12C) | GI50 (UACC-62) |
| --- | --- | --- | --- | --- | --- | --- | --- | --- | --- | --- | --- | --- | --- | --- | --- | --- | --- | --- | --- | --- |
| CSCCCNC(=O)c1csc(-c2csc(CCN)n2)n1 | 84.5 µM (inactive) | > 100 µM (inactive) | > 100 µM (inactive) | 49.4 µM (inactive) | > 100 µM (inactive) | 91.4 µM (inactive) | > 100 µM (inactive) | 91 µM (inactive) | > 100 µM (inactive) | 54.8 µM | 56.8 µM (inactive) | 74.1 µM (inactive) | 52.5 µM (inactive) | > 100 µM (inactive) | > 100 µM (inactive) | > 100 µM (inactive) | > 100 µM (inactive) | > 100 µM (inactive) | 68.1 µM (inactive) | > 100 µM (inactive) |
| COc1ccc(-c2cc(-c3ccc(Nc4ccnc5cc(C(F)(F)F)ccc45)cc3)[nH]c(=O)c2C#N)c2ccccc12 | 17.5 µM (inactive) | > 100 µM (inactive) | > 43.8 µM (inactive) | > 61.2 µM (inactive) | > 46.3 µM (inactive) | 12.6 µM (inactive) | > 100 µM (inactive) | > 100 µM (inactive) | 38.1 µM (inactive) | > 100 µM | 35.7 µM (inactive) | > 29.5 µM (inactive) | 17.7 µM (inactive) | > 100 µM (inactive) | > 100 µM (inactive) | 16.6 µM (inactive) | 15.2 µM (inactive) | > 100 µM (inactive) | > 100 µM (inactive) | 88.5 µM (inactive) |
| Cc1cccc2c1c(=O)c1c(O)cc(O)cc1n2C | 78.3 µM (inactive) | 80.5 µM (inactive) | > 100 µM (inactive) | > 100 µM (inactive) | > 100 µM (inactive) | > 100 µM (inactive) | > 100 µM (inactive) | > 100 µM (inactive) | > 100 µM (inactive) | > 100 µM | 33.8 µM (inactive) | > 100 µM (inactive) | > 100 µM (inactive) | 97.7 µM (inactive) | > 100 µM (inactive) | > 100 µM (inactive) | 59.8 µM (inactive) | 70.5 µM (inactive) | > 100 µM (inactive) | 90.6 µM (inactive) |
| CC(C)=C1C(=O)C[C@]2(C)C[C@H]3O[C@]3(C)CC[C@@H]3O[C@@]3(C)CC[C@@H]12 | > 50 µM (inactive) | 44.3 µM (inactive) | > 50 µM (inactive) | > 50 µM (inactive) | > 50 µM (inactive) | 34.5 µM (inactive) | > 50 µM (inactive) | > 50 µM (inactive) | > 50 µM (inactive) | > 50 µM | > 50 µM (inactive) | > 50 µM (inactive) | > 50 µM (inactive) | 34 µM (inactive) | > 50 µM (inactive) | > 50 µM (inactive) | > 50 µM (inactive) | > 50 µM (inactive) | > 50 µM (inactive) | > 50 µM (inactive) |
| CC(C)C1=Cc2ccc3c(c2C(=O)C1=O)CCCC3 | 1.95 µM (inactive) | 2.44 µM (inactive) | 17.9 µM (inactive) | 13.9 µM (inactive) | 5.64 µM (inactive) | 0.515 µM (active) | 21.4 µM (inactive) | 10.6 µM (inactive) | 7.11 µM (inactive) | 3.08 µM | 20.2 µM (inactive) | 1.59 µM (inactive) | 16 µM (inactive) | 2.27 µM (inactive) | 17.1 µM (inactive) | 8.07 µM (inactive) | 4.32 µM (inactive) | 0.78 µM (active) | 5.27 µM (inactive) | 7.46 µM (inactive) |
| O=S1(=O)c2ccccc2C(Nc2ccccc2)N1c1ccccc1 (stereo not given) | > 100 µM (inactive) | 27.6 µM (inactive) | > 100 µM (inactive) | > 100 µM (inactive) | > 100 µM (inactive) | 83.8 µM (inactive) | 45 µM (inactive) | 72.9 µM (inactive) | > 100 µM (inactive) | 48 µM | > 100 µM (inactive) | > 100 µM (inactive) | > 100 µM (inactive) | 24.7 µM (inactive) | > 100 µM (inactive) | > 100 µM (inactive) | > 100 µM (inactive) | 50.4 µM (inactive) | > 100 µM (inactive) | > 100 µM (inactive) |
